The assay addresses T1, hKV10.1a (Homo sapiens, UniProt O95259).
T1 construct: expressed in transfected cells; host or cells: Xenopus laevis oocytes injected with cRNA transcribed from the hKV10.1a-pSGEM plasmid
T1 sequence (O95259 1-962 isoform O95259-2): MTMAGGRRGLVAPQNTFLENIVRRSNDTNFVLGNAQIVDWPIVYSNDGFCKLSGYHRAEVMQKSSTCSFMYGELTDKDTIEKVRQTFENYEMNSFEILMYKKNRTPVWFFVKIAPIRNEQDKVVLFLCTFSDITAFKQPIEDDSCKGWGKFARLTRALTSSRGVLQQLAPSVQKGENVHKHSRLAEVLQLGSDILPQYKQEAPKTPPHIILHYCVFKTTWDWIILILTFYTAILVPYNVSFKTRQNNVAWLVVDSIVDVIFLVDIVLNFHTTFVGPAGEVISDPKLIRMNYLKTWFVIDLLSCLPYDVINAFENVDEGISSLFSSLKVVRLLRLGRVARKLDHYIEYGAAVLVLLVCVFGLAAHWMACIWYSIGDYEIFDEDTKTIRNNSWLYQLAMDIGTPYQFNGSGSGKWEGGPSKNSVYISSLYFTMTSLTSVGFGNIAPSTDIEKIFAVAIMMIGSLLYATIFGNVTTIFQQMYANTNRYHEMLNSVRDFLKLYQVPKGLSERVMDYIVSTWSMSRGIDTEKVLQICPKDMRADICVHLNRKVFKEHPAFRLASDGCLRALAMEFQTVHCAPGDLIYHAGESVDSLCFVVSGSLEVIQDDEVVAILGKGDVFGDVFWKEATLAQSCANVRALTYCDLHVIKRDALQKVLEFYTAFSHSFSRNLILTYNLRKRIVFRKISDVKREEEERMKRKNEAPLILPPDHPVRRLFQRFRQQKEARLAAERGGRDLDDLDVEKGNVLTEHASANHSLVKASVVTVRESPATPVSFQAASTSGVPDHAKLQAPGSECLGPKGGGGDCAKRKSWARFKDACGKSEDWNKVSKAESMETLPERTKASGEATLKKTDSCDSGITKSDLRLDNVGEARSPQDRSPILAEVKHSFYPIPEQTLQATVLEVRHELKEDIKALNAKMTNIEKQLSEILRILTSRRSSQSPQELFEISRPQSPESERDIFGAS
As to the kind of experiment: Two-electrode voltage-clamp recordings of KV10.1 currents in Xenopus laevis oocytes. The format is cell-based. The source says:
For the expression of hKV10.1a (GeneBank accession number: NM_002238.3) in Xenopus oocytes, the hKV10.1a-pSGEM plasmid was linearized with SfiI (ThermoFisher Scientific, Waltham, Massachusetts, USA) and transcribed using the T7 mMESSAGE-mMACHINE transcription kit (Ambion®, Carlsbad, California, USA).
Stage V-VI Xenopus laevis (African clawed frog) oocytes were isolated by partial ovariectomy. Mature female animals were purchased from Nasco (Fort Atkinson, Wisconsin, USA) and were housed in the Aquatic Facility (KU Leuven) in compliance with the regulations of the European Union (EU) concerning the welfare of laboratory animals as declared in Directive 2010/63/EU. The use of Xenopus laevis was approved by the Animal Ethics Committee of the KU Leuven (Project nr. P038/2017). Prior to harvesting the oocytes, the animals were anesthetized by a 15-min submersion in 0.1% tricaine methanesulfonate (pH 7.0). Isolated oocytes were defolliculated with 1.5 mg/mL collagenase.
Defolliculated oocytes were injected with 4 nL of cRNA at a concentration of 1 ng/nL using a micro-injector (Drummond Scientific®, Broomall, Pennsylvania, USA). The oocytes were incubated in a solution containing (in mM): NaCl, 96; KCl, 2; CaCl2, 1.8; MgCl2, 2 and HEPES, 5 (pH 7.4), supplemented with 50 mg/L gentamycin sulfate.
Two-electrode voltage-clamp recordings were performed at room temperature (18–22°C) using a Geneclamp 500 amplifier (Molecular Devices, USA) controlled by a pClamp data acquisition system (Axon Instruments®, Union City, California, USA). Whole cell currents from oocytes were recorded 1–4 days after injection. Bath solution composition was (in mM): NaCl, 96; KCl, 2; CaCl2, 1.8; MgCl2, 2 and HEPES, 5 (pH 7.5). Voltage and current electrodes were filled with a 3 M solution of KCl in H2O. Resistances of both electrodes were kept between 0.5 and 1.5 MΩ. The elicited KV10.1 currents were filtered at 1 kHz and sampled at 2 kHz using a four-pole low-pass Bessel filter. Leak subtraction was performed using a -P/4 protocol. KV10.1 currents were evoked by 2-s depolarizing pulses to 0 mV from a holding potential of -90 mV unless otherwise indicated.
All electrophysiological data are presented as means ± S.E.M of n ≥ 3 independent experiments unless otherwise indicated. All data was analyzed using pClamp Clampfit 10.4 (Molecular Devices®, Downingtown, Pennsylvania, USA) and OriginPro 8 (Originlab®, Northampton, Massachusetts, USA) or GraphPad Prism 5 software (GraphPad Software, Inc., San Diego, California, USA).

Read-outs that look alike come from different tables or passages of the source.

What is called inhibition is the change of the read-out against control, counted positive when it falls. In general, Hill coefficient refers to the slope factor of the fitted curve. The IC50 is the concentration that gives 50% inhibition. With `COc1ccc(C(=O)NCCc2cc(Br)c(OCCCN(C)C)c(Br)c2)cc1Cl` [Compound 5, 3-Chloro-N-[3,5-dibromo-4-[3-(dimethylamino)propoxy]phenethyl]-4-methoxybenzamide], the “remaining current, % of the control current” value (10 μM added during 20-s continuous step to 30 mV) was “approximately 50%”. Also, for the setting “10 μM, wash-out”, the “reversibility of KV10.1 inhibition” value is “reversible”. In addition, the “effect on KV10.1 inactivation (two-pulse protocol)” value (10 μM, 1.5-s prepulse -140 mV to 50 mV, 0.5-s test pulse to 30 mV) was “an apparent inactivation is induced”. Besides, the inhibition at 10 µM (10 μM, 2-s depolarizing pulses to 0 mV from -90 mV, read-out: KV10.1 current inhibition) was 51 ± 3% and the inhibition at 10 µM (10 μM, oocyte clamped at -90 mV for 10 minutes, then 2-s pulse to 0 mV, read-out: KV10.1 current inhibition after clamping at -90 mV) stood at 53 ± 4%. Further, under “10 μM, ND96 (2 mM extracellular K+), Boltzmann fit”, the “shift of activation curve (ΔV1/2) to more negative potentials” value is recorded as 21.0 ± 1.6 mV. The “half-maximal voltage of activation (V1/2) in presence of compound” value (10 μM, ND96 (2 mM extracellular K+), control V1/2 = 23.2 ± 0.4 mV) worked out at 2.1 ± 0.4 mV. Further, the “slope factor k of activation curve in presence of compound” value (10 μM, ND96, control k = 15.5 ± 0.4) is 13.8 ± 0.3. Besides, the “time constant (τ) of wash-out” value (10 μM, one phase association equation) is on record as ~ 20 s. Further, the “exponential time constant (τ) of wash-in” value (10 μM, one phase decay equation) is listed as 5.3 s. In addition, the KV10.1 current inhibition (40 μM, extracellular perfusion, average ± SEM) was determined as 86.9 ± 1.3%. Moreover, for the setting “40 μM, extracellular perfusion, average ± SEM, read-out: KV10.1 current inhibition”, the inhibition at 40 µM is 87 ± 1%. Also, under “8 concentrations 0.04 μM to 80 μM, logistic dose-response fit”, the Hill coefficient amounted to 1.6 ± 0.3. Where the note is “8 concentrations 0.04 μM to 80 μM, logistic dose-response fit, read-out: IC50 of KV10.1 current inhibition”, the IC50 was found to be 7.7 ± 1 µM. Moreover, where the note is “mixtures p*10 μM 5 and (1-p)*10 μM mibefradil, 7 ratios”, the “competition plot with mibefradil” value is “compete for the same binding site”.

The record behind these values is publication PMC5722316, “Synthesis of novel purpurealidin analogs and evaluation of their effect on the cancer-relevant potassium channel KV10.1” (PLoS ONE, 2017).
